Measurements as given in patent EP4596561A1, “PHOSPHORUS-CONTAINING COMPOUND, PHARMACEUTICAL COMPOSITION AND USE THEREOF” (Suzhou Genhouse Bio Co., Ltd., priority 2022, dated 2024).

Tests used:
[1] = Stability test in liver microsomes; assay type: in vitro ADME, CD-1 mouse; settings: mouse liver microsomes, 0.5 mg/mL, 1.0 µM substrate
Experimental: Phase I metabolic stability of the test compounds in liver microsomes of CD-1 mice, Sprague-Dawley rats, and humans was assessed.
The animal and human liver microsomes used in the test system were purchased from Xenotech, Corning, or other qualified suppliers and stored in a freezer at a temperature below -60 °C prior to use. The information of the animal and human liver microsomes used was as follows:
The test samples and the reference compounds were separately incubated with animal and human liver microsomes at 37±1 °C for a period of incubation time of up to 60 min. The samples were taken out at the indicated time points, and the reaction was stopped with acetonitrile or another organic solvent containing an internal standard. After centrifugation, the resulting supernatants were assayed by the liquid chromatography-tandem mass spectrometry (LC-MS/MS) method.
Microsomes of each species were diluted into a 2× working solution with a 100 mM potassium phosphate buffer. […]
Incubation was performed in a 96-well plate. Eight incubation plates were prepared and designated T0, T5, T15, T30, T45, T60, Blank60, and NCF60, respectively. The first 6 plates corresponded to reaction time points of 0 min, 5 min, 15 min, 30 min, 45 min, and 60 min, respectively. No test sample or reference compound was added to the Blank60 plate, and samples were taken after 60 min of incubation. In the NCF60 plate, incubation was performed for 60 min using the potassium phosphate buffer instead of the NADPH regeneration system solution. Three replicates were made for samples in all conditions.
The microsomes and the test sample or reference compound were mixed, and then the incubation plates Blank60, T5, T15, T30, T45, and T60 except for T0 and NCF60 were placed in a 37 °C water bath for pre-incubation for about 10 min. In the incubation plate T0, a stop solution was first added, followed by the addition of the NADPH regeneration system working solution, and 98 µL of the potassium phosphate buffer was added to each sample well of the incubation plate NCF60 to initiate the reaction. After the pre-incubation of the incubation plates Blank60, T5, T15, T30, T45, and T60 was completed, 98 µL of the NADPH regeneration system working solution was added to each sample well to initiate the reaction. The reaction temperature was 37±1 °C, the final volume of the reaction was 200 µL, and the reaction system included 0.5 mg/mL microsomes, 1.0 µM substrate, 1 mM NADP, 6 mM ISO, and 1 unit/mL IDH.
At 5 min, 15 min, 30 min, 45 min, and 60 min, a cold stop solution containing an internal standard was added to the reaction plate to stop the reaction.
All the reaction plates after the reaction was stopped were shaken well and centrifuged at 3220× g at 4 °C for 20 min. After the supernatant was diluted at a certain ratio, LC-MS/MS analysis was performed.
Sample analysis was performed by the liquid chromatography-tandem mass spectrometry (LC-MS/MS) method without standard curves and quality control samples. Semi-quantitative determination was performed according to the ratio of the analyte peak area to the internal standard peak area. The retention times of the analyte and internal standard, the chromatogram acquisition, and chromatogram integration were processed using the Analyst software (Sciex, Framingham, Massachusetts, USA).
According to the well stir model, the hepatic intrinsic clearance and hepatic clearance can be converted through the following formula. CL(liver) = (CLint(liver)×Qh)/(CLint(liver)+Qh) [formula]

H226 cells = test: Pharmacodynamic test, H226 subcutaneous xenograft; assay type: in vivo, nude mice (BALB/c nu/nu)
Experimental: Healthy female nude mice (BALB/c nu/nu) aged 6-8 weeks were housed in an SPF environment in accordance with animal ethical guidelines. The well-growing 10^7 H226 cells were harvested through trypsin digestion, washed in phosphate-buffered saline (PBS), and then resuspended in PBS containing 50% matrigel (BD Biosciences).
Subcutaneous injection was then performed at the dorsolateral sites of the mice, and the tumor volume was measured once every three days thereafter. When the tumor volume reached around 150-200 mm^3, the mice were randomly assigned to different treatment groups. Any one of the compounds described herein was prepared accordingly and administered at an appropriate dose. Finally, the tumor growth in the nude mice was analyzed after 4 to 6 weeks based on the growth of the tumors.

[2] = Saturated solubility in FaSSIF solution; assay type: physicochemical; settings: room temperature, stirred overnight
Experimental: Efficacy Experimental Example 9: Test of Saturated Solubility of Samples in FaSSIF Solution
About 0.21 g of sodium hydroxide, about 2.24 g of sodium dihydrogen phosphate dihydrate, and 3.09 g of sodium chloride were weighed out and dissolved in 500 mL of water, and after dissolution, the pH was adjusted to 6.5 with 1 N sodium hydroxide or 1 N hydrochloric acid.
112 mg of FaSSIF solid was weighed out and placed in a 50 mL volumetric flask, and the buffer described above was added for dissolution. The resulting solution was diluted to volume, mixed well, and left to stand at room temperature for 2 h or more.
Test sample: About 1 mg of the test sample was taken, and 1 mL of FaSSIF solution was added. The mixture was stirred at room temperature overnight and centrifuged, and the supernatant was collected and injected for analysis.
Reference sample solution: About 1.5 mg of the test sample was precisely weighed out and placed in a 50 mL volumetric flask, and DMF was added for dissolution. The resulting solution was diluted to volume and mixed well.
The peak of the main component of the reference sample and the peak of the test sample with the same retention time were integrated, and the concentration thereof in the FaSSIF solution was calculated according to the external standard method.

## Cn1cnc(-c2cc(P(C)(C)=O)cnc2Nc2ccc(C(F)(F)F)cc2)c1 [Example 8]
[1]
  half-life at 1 µM: > 145 min
H226 cells; 10mpk QD
  TGI: 10mpk QD TGI = 115.60%
[2]
  FaSSIF(pH = 6.5): 433.97 ug/mL

## Cn1cnc(-c2cc(P(C)(C)=O)ccc2Nc2ccc(C(F)(F)F)cc2)c1 [Example 14]
[1]
  half-life at 1 µM: > 145 min
H226 cells; 10mpk QD
  TGI: 10mpk QD TGI = 100.38%
[2]
  FaSSIF(pH = 6.5): 674.6 ug/mL

## Cc1ccc(Oc2ccc(C(F)(F)F)cc2)c2ccc(P(C)(C)=O)cc12 [Example 24]
[1]
  half-life at 1 µM: 119 min
[2]
  FaSSIF(pH = 6.5): 193.3 ug/mL

## CP(C)(=O)c1ccc2c(c1)c1cccnc1n2-c1ccc(C(F)(F)F)cc1 [Example 5]
[2]
  FaSSIF(pH = 6.5): 781.7 ug/mL

## CP(C)(=O)c1ccc(Nc2ccc(C(F)(F)F)cc2)c(-c2ncccn2)c1 [Example 12]
[1]
  half-life at 1 µM: > 145 min
H226 cells; 50mpk QD
  TGI: 50mpk QD TGI = 111.58%

## CP(C)(=O)c1ccc2c(c1)c1ccccc1n2-c1ccc(C(F)(F)F)cc1 [Example 1]
[1]
  half-life at 1 µM: > 145 min
H226 cells; 50mpk QD
  TGI: 50mpk QD TGI = 108.39%
H226 cells; 100mpk QD
  TGI: 100mpk QD TGI = 113.05%
[2]
  FaSSIF(pH = 6.5): >950.5 ug/mL

## CP(C)(=O)c1cnc(Nc2ccc(C(F)(F)F)cc2)c(-c2cn3c(n2)CCC3)c1 [Example 22]
[1]
  half-life at 1 µM: > 145 min
H226 cells; 10mpk QD
  TGI: 10mpk QD TGI = 106.26%
H226 cells; 30mpk QD
  TGI: 30mpk QD TGI = 113.45%
[2]
  FaSSIF(pH = 6.5): 337.6 ug/mL

## CP(C)(=O)c1ccc2c(Oc3ccc(C(F)(F)F)cc3)cccc2c1 [Example 7]
[1]
  half-life at 1 µM: > 145 min
H226 cells; 5mpk QD
  TGI: 5mpk QD TGI = 111.84%
[2]
  FaSSIF(pH = 6.5): 1499.5 ug/mL

## CP(C)(=O)c1ccc(Nc2ccc(C(F)(F)F)cc2)c(-c2ccccn2)c1 [Example 10]
[1]
  half-life at 1 µM: > 145 min
H226 cells; 25mpk QD
  TGI: 25mpk QD TGI = 100.89%
[2]
  FaSSIF(pH = 6.5): 89.75 ug/mL
